Test results reported in article PMC9460261, “Need for a Standardized Translational Drug Development Platform: Lessons Learned from the Repurposing of Drugs for COVID-19” (Microorganisms, 2022).
Where a name gives a salt, the structure may show the parent alone. Read-outs that look alike come from different tables or passages of the source.

Assays:
[1] = system: SARS-CoV-2 in Calu-3 cells; conditions: for IC50: read-out: Calu-3 cells Average IC50, * one replicate only
[2] = Binding to antiviral assay medium by Rapid Equilibrium Dialysis; conditions: 2% serum DMEM media; DNDi in-house data
[3] = system: SARS-CoV-2 in Vero cells; conditions: for Selectivity Index (Vero cells), With Pgp pump inhibitor / Selectivity Index (Vero cells), Without Pgp pump inhibitor: T: toxicity observed; for IC50: * one replicate only
[4] = system: SARS-CoV-2; conditions: cited from earlier work; for EC50: read-out: SARS-CoV-2 EC50
[5] = system: SARS-CoV-2 in Calu-3 cells; assay: microbe, parasite or virus in culture; conditions: Severe acute respiratory syndrome coronavirus 2, Calu-3, read-out: Calu-3 cells Average IC50
[6] = system: SARS-CoV-2 in Vero cells; assay: microbe, parasite or virus in culture; conditions: Severe acute respiratory syndrome coronavirus 2, Vero
[7] = system: SARS-CoV-2; type: in vivo, Syrian hamster; conditions: doses, frequency, duration as in Table 1
[8] = female, LGV Golden Syrian, hamster, in vivo
[9] = in vitro; conditions: African green monkey, Selectivity Index (Vero cells)
[10] = Population PK model from satellite PK studies in hamster
[11] = Population PK model in human (digitized literature data)
[12] = read-out: VERO cells Average IC50, With Pgp pump inhibitor, 2 μM CP-100356
[13] = read-out: VERO cells Average IC50, Without Pgp pump inhibitor
[14] = read-out: VERO cells Average IC50, With Pgp pump inhibitor, 2 μM CP-100356, * one replicate only
[15] = read-out: VERO cells Average IC50, Without Pgp pump inhibitor, * one replicate only
[16] = With Pgp pump inhibitor, T: toxicity observed
[17] = Without Pgp pump inhibitor, T: toxicity observed
[18] = hamster of the study's median weight (80-131 g)
[19] = human, modelled from digitized data, ref 68 (ambroxol), 71-73 (cepharanthine), 78 (fluvoxamine), 80 (molnupiravir)

O=c1nc(NO)ccn1[C@@H]1O[C@H](CO)[C@@H](O)[C@H]1O [EIDD-1931]
IC50 [1]: 3.6 µM
Fraction unbound in assay medium [2]: 99.7%
Selectivity Index (Vero cells), With Pgp pump inhibitor [3]: > 37
Selectivity Index (Vero cells), Without Pgp pump inhibitor [3]: > 32
IC50 [3, 12]: 1.3 µM
IC50 [3, 13]: 1.5 µM

CN(Cc1cc(Br)cc(Br)c1N)C1CCCCC1 [Bromhexine, bromhexine]
EC50 ([4]; host cell Vero E6, ref 47): 21700 nM

CC1(C)C(=O)N(c2ccc(C#N)c(C(F)(F)F)c2F)C(=S)N1c1ccc(CCCc2ncco2)nc1 [Proxalutamide, proxalutamide]
Activity In Vitro; Potency EC50 or IC50 < 10 µM; Calu-3 Cells [1]: No (Potency EC50 or IC50 < 10 µM)
IC50 [1]: 14.5 µM
EC50 ([4]; host cell LNCaP Cells): 97 nM
Activity In Vitro; Potency EC50 or IC50 < 10 µM; Vero Cells [3]: No (Potency EC50 or IC50 < 10 µM)
Selectivity Index (Vero cells), With Pgp pump inhibitor [3]: < 2.3
Selectivity Index (Vero cells), Without Pgp pump inhibitor [3]: < 1.6
IC50 [3, 12]: 21.5 µM
IC50 [3, 13]: 30.3 µM

CCCN(CCC)S(=O)(=O)c1ccc(C(=O)O)cc1 [Probenecid, probenecid]
Activity In Vitro; Potency EC50 or IC50 < 10 µM; Calu-3 Cells [1]: No (Potency EC50 or IC50 < 10 µM)
IC50 [5]: > 50 µM
EC50 ([4]; host cell NHBE): 1.3 nM
EC50 ([4]; host cell Vero E6, ref 54): 750 nM
IC50 [6, 14]: > 50 µM
IC50 [6, 15]: > 50 µM
Activity In Vitro; Potency EC50 or IC50 < 10 µM; Vero Cells [3]: No (Potency EC50 or IC50 < 10 µM)

Cc1c(-c2ccc(-c3ccccc3F)cc2)nc2ccc(F)cc2c1C(=O)O [Brequinar, brequinar]
EC50 ([4]; host cell A549-ACE): 50 nM
EC50 ([4]; host cell Caco-2): > 50000 nM
EC50 ([4]; host cell Huh7.5): 500 nM
EC50 ([4]; host cell Vero E6, ref 51): 120 nM

CC(C)c1nc(CN(C)C(=O)N[C@H](C(=O)N[C@@H](Cc2ccccc2)C[C@H](O)[C@H](Cc2ccccc2)NC(=O)OCc2cncs2)C(C)C)cs1 [Ritonavir, ritonavir]
EC50 ([4]; host cell Vero E6, ref 31): > 100000 nM
EC50 ([4]; host cell Vero E6, ref 32): > 50000 nM
EC50 ([4]; host cell VeroE6/TMPRSS2): 8600 nM

CC(=O)Oc1ccccc1C(=O)Nc1ncc([N+](=O)[O-])s1 [Nitazoxanide, nitazoxanide]
Activity in SARS-CoV-2 Hamster Model [7]: No
CL/F, elimination clearance, population estimate (%RSE) [8]: 626 (11.9) mL/h
VC/F, central volume of distribution, population estimate (%RSE) [8]: 188 (38.6) mL
IC50 [5]: 13.6 µM
IC50 [6, 14]: 3.4 µM
IC50 [6, 15]: 6.3 µM
selectivity ratio ([9]; With Pgp pump inhibitor): > 14.7
selectivity ratio ([9]; Without Pgp pump inhibitor): > 7.9

CCNCc1cc(Nc2ccnc3cc(Cl)ccc23)ccc1O [N-desethylamodiaquine]
CL/F, elimination clearance, population estimate (%RSE) [8]: 804 (9.48%) mL/h
Q/F (Q1/F), inter-compartment clearance, population estimate (%RSE) [8]: 229 (27.6%) mL/h
VC/F, central volume of distribution, population estimate (%RSE) [8]: 1890 (42.2%) mL
VP/F, peripheral volume of distribution, population estimate (%RSE) [8]: 3050 (77.1%) mL

O=C(Nc1ncc([N+](=O)[O-])s1)c1ccccc1O [Tizoxanide, tizoxanide]
IC50 [5]: 14.3 µM
IC50 [6, 14]: 2.3 µM
IC50 [6, 15]: 7.2 µM
selectivity ratio [9, 16]: > 21.7
selectivity ratio [9, 17]: > 7

CC(=O)CCCCn1c(=O)c2c(ncn2C)n(C)c1=O [Pentoxyfilline, pentoxyfilline]
Activity In Vitro; Potency EC50 or IC50 < 10 µM; Calu-3 Cells [1]: No (Potency EC50 or IC50 < 10 µM)
IC50 [5]: > 50 µM
IC50 [6, 14]: > 50 µM
IC50 [6, 15]: > 50 µM
Activity In Vitro; Potency EC50 or IC50 < 10 µM; Vero Cells [3]: No (Potency EC50 or IC50 < 10 µM)

CN(C)C(=O)COC(=O)Cc1ccc(OC(=O)c2ccc(NC(=N)N)cc2)cc1 [Camostat mesylate, camostat mesylate]
Activity In Vitro; Potency EC50 or IC50 < 10 µM; Calu-3 Cells [1]: Yes (Potency EC50 or IC50 < 10 µM)
Activity in SARS-CoV-2 Hamster Model [7]: No
IC50 [5]: 3 µM
EC50 ([4]; host cell Calu-3): 83 nM
IC50 [6, 14]: > 50 µM
IC50 [6, 15]: > 50 µM
Activity In Vitro; Potency EC50 or IC50 < 10 µM; Vero Cells [3]: No (Potency EC50 or IC50 < 10 µM)

OC(c1cc(C(F)(F)F)nc2c(C(F)(F)F)cccc12)C1CCCCN1 (centres unmarked) [Mefloquine, mefloquine]
Activity In Vitro; Potency EC50 or IC50 < 10 µM; Calu-3 Cells [1]: No (Potency EC50 or IC50 < 10 µM)
IC50 [5]: 13.2 µM
IC50 [6, 14]: 2.8 µM
IC50 [6, 15]: 5.7 µM
Activity In Vitro; Potency EC50 or IC50 < 10 µM; Vero Cells [3]: Yes (Potency EC50 or IC50 < 10 µM)
selectivity ratio ([9]; With Pgp pump inhibitor): 6.2
selectivity ratio ([9]; Without Pgp pump inhibitor): 3.6

bemnifosbuvir
Activity In Vitro; Potency EC50 or IC50 < 10 µM; Calu-3 Cells [1]: No (Potency EC50 or IC50 < 10 µM)
IC50 [1]: > 50 µM
Activity in SARS-CoV-2 Hamster Model [7]: No ^d
Activity in SARS-CoV-2 Hamster Model ([7]; listed as bemnifosbuvir (AT-527)): no activity
EC90 ([4]; host cell HAE, AT-511, free base of AT-527 used): 470 nM
Activity In Vitro; Potency EC50 or IC50 < 10 µM; Vero Cells [3]: No (Potency EC50 or IC50 < 10 µM)
IC50 [3, 12]: > 25 µM
IC50 [3, 13]: > 25 µM

NCCC(Oc1ccc(C(F)(F)F)cc1)c1ccccc1 (centres unmarked) [norfluoxetine]
FFP, fraction undergoing first-pass metabolism, population estimate (%RSE) ([10]; hamster 97 g): 0.323 (11)
CL/F, elimination clearance, population estimate (%RSE) [10, 18]: 93.3 (6.3) mL/h
VC/F, central volume of distribution, population estimate (%RSE) [10, 18]: 2740 (5.7) mL

ivermectin
Activity In Vitro; Potency EC50 or IC50 < 10 µM; Calu-3 Cells [1]: Yes (Potency EC50 or IC50 < 10 µM)
IC50 [1]: 8.9 µM
Activity in SARS-CoV-2 Hamster Model [7]: No
Effect of SC administration on F ([10]; compared to PO administration): 0.656 (15.7)
Effect of SC administration on KA ([10]; compared to PO administration): 2.05 (50.0)
Effect of SC administration on MTT ([10]; compared to PO administration): -0.85 (5.61)
MTT, mean transit time, population estimate (%RSE) ([10]; hamster 120 g): 0.478 (7.42) h
CL/F, elimination clearance, population estimate (%RSE) [10, 18]: 13.3 (0.160) mL/h
KA, absorption rate constant, population estimate (%RSE) [10, 18]: 0.531 (8.35) h-1
IC50 ([4]; Vero-hSLAM cells, read-out: IC50, medium): 2800 nM
EC50 ([4]; host cell Vero E6, ref 22): 1700 nM
EC50 ([4]; host cell Vero E6, ref 38): 2300 nM
EC50 ([4]; host cell not given): 2000 nM
Activity In Vitro; Potency EC50 or IC50 < 10 µM; Vero Cells [3]: Yes (Potency EC50 or IC50 < 10 µM)
IC50 [3, 12]: 1.1 µM
IC50 [3, 13]: 4.3 µM

CC(C)C(=O)OC[C@H]1O[C@@H](n2ccc(NO)nc2=O)[C@H](O)[C@@H]1O [Molnupiravir, molnupiravir]
Activity In Vitro; Potency EC50 or IC50 < 10 µM; Calu-3 Cells [1]: Yes (Potency EC50 or IC50 < 10 µM)
Activity in SARS-CoV-2 Hamster Model [7]: Yes
Activity in SARS-CoV-2 Hamster Model ([7]; listed as molnupiravir): demonstrated in vivo efficacy
CL/F, elimination clearance, population estimate (%RSE) [8]: 1340 (7.6) mL/h
Dose effect on KA (exp) [8]: -0.00247 (23.7)
KA, absorption rate constant, population estimate (%RSE) [8]: 1.45 (7.5) h-1
Q/F (Q1/F), inter-compartment clearance, population estimate (%RSE) [8]: 15.8 (23.1) mL/h
VC/F, central volume of distribution, population estimate (%RSE) [8]: 172 (21.6) mL
VP/F, peripheral volume of distribution, population estimate (%RSE) [8]: 75.3 (23.0) mL
IC50 [5]: 27.8 µM
EC50 ([4]; host cell Calu-3): 100 nM
Dose effect on MTT (power) ([11]; covariate, human model): 0.127 (10.8%)
CL/F, population estimate (%RSE) [11, 19]: 80.9 (3.9%) L/h
VC/F, population estimate (%RSE) [11, 19]: 128 (5.7%) L
MTT, population estimate (%RSE) ([11]; human, modelled from digitized data, ref 68 (ambroxol), 78 (fluvoxamine), 80 (molnupiravir)): 1.0 (3.3%) h
IC50 [6, 15]: 26 µM
Activity In Vitro; Potency EC50 or IC50 < 10 µM; Vero Cells ([3]; in the presence of a P-glycoprotein inhibitor (^Pgp)): Yes ^Pgp (Potency EC50 or IC50 < 10 µM)
IC50 [3, 12]: 2.6 µM
IC50 ([3]; read-out: VERO cells Average IC50, With Pgp pump inhibitor, 2 μM CP-100356, listed as molnupiravir): < 10 µM
selectivity ratio [9, 16]: > 19.4
selectivity ratio [9, 17]: > 1.9

C[C@@]1(F)[C@H](O)[C@@H](CO)O[C@H]1n1ccc(=O)[nH]c1=O [GS-331007]
CL/F, elimination clearance, population estimate (%RSE) [10, 18]: 390 (17.4) mL/h
VC/F, central volume of distribution, population estimate (%RSE) [10, 18]: 2750 (17.0) mL

COc1cc2c(c(OC)c1OC)-c1ccc(OC)c(=O)cc1[C@@H](NC(C)=O)CC2 [Colchicine, colchicine]
Activity In Vitro; Potency EC50 or IC50 < 10 µM; Calu-3 Cells [1]: Yes (Potency EC50 or IC50 < 10 µM)
IC50 ([6]; read-out: VERO cells Average IC50, With Pgp pump inhibitor): 3.7 µM
IC50 [6, 13]: 8.4 µM
Activity In Vitro; Potency EC50 or IC50 < 10 µM; Vero Cells [3]: Yes (Potency EC50 or IC50 < 10 µM)
